# Laboratory results taken from patent US20060282906A1, “Non-transgenic rodent model of Alzheimer's disease” (priority 2005, published 2006).
# Experiments:
# [1] = test system: Male Wistar rats; assay: Immunohistochemistry of rat brain sections, grading scale of staining size and intensity; assay type: in vivo; parameters: key to NKκB(p65) immunostaining signal / COX-2 immunostaining signal / GFAP immunostaining signal / OX-6 immunostaining signal / APP immunostaining signal / Tau-2 immunostaining signal / TNFα immunostaining signal / Cas-3 immunostaining signal: n.s.: no positive staining; +: moderate immunostaining signal; ++: strong immunostaining signal; +++: strongest immunostaining signal
# Method: (§3) All rats were anesthetized using 40 mg/kg of pentobarbital (Somnotol; MTC Pharmaceuticals, Cambridge, Ontario) intraperitoneally. Body temperature was maintained at 37° C. Aβ(25-35) (50 nmol in 10 μL of saline) was injected bilaterally into the lateral ventricles. Aβ(25-35) was prepared according to established methods (Sigurdsson, et al. (1997) supra). Aβ(25-35) (50 nmol in 10 μL of saline at a rate of 1 μL/minute) was injected bilaterally into the lateral ventricles via a stainless-steel cannula (23-gauge; anterior/posterior −0.8, medial/lateral ±1.4, and dorsal/ventral −4.0 below dura). Two endothelin injections (6 pmol in 3 μL of saline), 1 mm apart, were made into the right striatum (Sigurdsson, et al. (1997) supra). Sham procedures involved all the surgical steps without injections of Aβ(25-35) or endothelin. After wound suture, all rats received 40 mg/kg of buprenorphine intramuscularly and were allowed to recover from surgery for 7 days.
# (§4) Twenty-one days after surgery, all animals were euthanized via pentobarbital overdose and perfused transaortically first with saline followed by 4% formaldehyde (pH 7.4). The brains were removed and cryoprotected in 30% sucrose for 36 hours at 4° C. Coronal sections (30 pm) were cut using a cryostat.
# (§5) Free-floating sections from rat brains (n=5 for each group) were treated with 0.03% hydrogen peroxide and blocked with 3 mL of horse or rabbit serum (VECTASTAIN® Elite, Vector Laboratories, Burlingame, Calif.). The following primary antibodies were diluted in filtered phosphate-buffered saline: APPa4 mouse monoclonal (Chemicon International Inc, Temecula, Calif.; 1:1000), GFAP mouse monoclonal (Sigma-Aldrich, St Louis, Mo.; 1:1000), OX-6 mouse monoclonal (Serotec, Inc., Raleigh, N.C.; 1:1000), Tau-2 mouse monoclonal (Sigma-Aldrich, St Louis, Mo.; 1:10000), NFκB(p65) goat polyclonal (Santa Cruz Biotechnologies, Santa Cruz, Calif.; 1:1000), IL-1β goat polyclonal (Santa Cruz Biotechnologies, Santa Cruz, Calif.; 1:1000), and TNF-α-M18 goat polyclonal (Santa Cruz Biotechnologies, Santa Cruz, Calif.; 1:1000). APP-, Tau-2-, GFAP-, and OX-6-stained sections were incubated with 3 mL of horse biotinylated anti-mouse secondary antibody and horse serum. NFκB(p65), IL-1β, and TNF-α-stained sections were incubated with 3 mL of biotinylated rabbit anti-goat secondary antibody and rabbit serum. Sections were then incubated in 3 mL of avidin-biotin complex followed by 0.05% diaminobenzidine. Sections were washed, air-dried, cleared in xylene, and cover-slipped. Brains to be compared were processed at the same time using the same solutions to reduce variability in immunostaining caused by separate processing.
# (§6) Digital photographs were taken using a light microscope (Leitz Diaplan). An investigator was blinded to the identification of the rat sections while analysis was being performed. All immunohistochemical data that were compared was processed at the same time to reduce any variation caused by differences of intensity. A grading scale was based on both observable size and intensity of staining (n=5 for each group). Also, relative optical density measurements and numbers of stained cells or accumulations were measured in entire brain areas for quantitative analysis and statistically analyzed with ANOVA and Tukey post hoc test with a significance level of P<0.05.
# [2] = test system: Male Wistar rats; assay: Quantitative immunohistochemistry: relative optical density and numbers of stained cells or accumulations; assay type: in vivo, rat; settings: for APP Accumulation / GFAP Intensity / OX6 Intensity: vehicle (not in brackets), mean ± SEM, n = 4
# Method: as §3, §4, §5, §6
# [3] = test system: Male Wistar rats; assay: Montoya staircase test; assay type: in vivo, rat; settings: mean±SEM
# Method: (§1) Male Wistar rats (250 to 300 grams; Charles River, Montreal, Quebec) were divided into 4 groups: intracerebroventricular injections of Aβ(25-35) (BACHEM, Torrance, Calif.); endothelin injections into the right striatum; both Aβ(25-35) and striatal endothelin injections; and sham procedures. The Aβ(25-35) fragment was used to reduce the possibility of rapid coagulation and to allow diffusion of the peptide into the brain.
# (§2) All rats were anesthetized using 40 mg/kg of pentobarbital (Somnotol; MTC Pharmaceuticals, Cambridge, Ontario) intraperitoneally. Body temperature was maintained at 37° C. Aβ(25-35) (50 nmol in 10 μL of saline) was injected bilaterally into the lateral ventricles. Aβ(25-35) was prepared according to established methods (Sigurdsson, et al. (1997) supra). Aβ(25-35) (50 nmol in 10 μL of saline at a rate of 1 μL/minute) was injected bilaterally into the lateral ventricles via a stainless-steel cannula (23-gauge; anterior/posterior −0.8, medial/lateral ±1.4, and dorsal/ventral −4.0 below dura). Two endothelin injections (6 pmol in 3 μL of saline), 1 mm apart, were made into the right striatum (Sigurdsson, et al. (1997) supra). Sham procedures involved all the surgical steps without injections of Aβ(25-35) or endothelin. After wound suture, all rats received […] of buprenorphine intramuscularly and were allowed to recover from surgery for 7 days.
# For training (n=10 for each group), rats were placed into the Montoya staircase apparatus (Montoya, et al. (1991) supra) at the same time every day for 8 days (days −8 through −1) and were allowed to perform the test for 20 minutes. Rats were food-deprived for 1 day (day −9) before testing, as well as on day −8. On days −7 though −1, rats were fed 10 grams of their normal chow so that they maintained their body weight at ˜85%. Three NOYES LAB ANIMAL PRECISION FOOD PELLETS™ (Research Diets, Inc., New Brunswick, N.J.) were placed in each of the 14 wells (7 on each side). Pellets eaten were recorded from each well. Re-testing trials, which were performed 7 days after the surgical procedures (day 0), were performed for 8 days in the same way as the training trials (days 8 through 15).
# Digital photographs were taken using a light microscope (Leitz Diaplan). An investigator was blinded to the identification of the rat sections while analysis was being performed. […] Also, relative optical density measurements and numbers of stained cells or accumulations were measured in entire brain areas for quantitative analysis and statistically analyzed with ANOVA and Tukey post hoc test with a significance level of P<0.05. […] The staircase data are expressed as the mean±SEM. […] Data are expressed as mean±SEM. […]
# [4] = test system: Male Wistar rats; assay: Congo Red histochemistry of rat brain sections; assay type: in vivo; settings: Aβ: lesions in fornix, anterior hippocampus, CA1 hippocampus; endothelin: infarct
# Method: as §1
# as §2, with “days. […]” for “days.”
compound,measurement,setting,value
CC[C@H](C)[C@H](NC(=O)[C@H](CC(=O)O)NC(=O)[C@H](CC(C)C)NC(=O)[C@H](Cc1c[nH]cn1)NC(=O)[C@@H]1CSSC[C@H](N)C(=O)N[C@@H](CO)C(=O)N[C@H]2CSSC[C@H](NC(=O)[C@H](CCC(=O)O)NC(=O)[C@H](CCCCN)NC(=O)[C@H](CC(=O)O)NC(=O)[C@H](CCSC)NC(=O)[C@H](CC(C)C)NC(=O)[C@H](CO)NC(=O)[C@H](CO)NC2=O)C(=O)N[C@@H](C(C)C)C(=O)N[C@@H](Cc2ccc(O)cc2)C(=O)N[C@@H](Cc2ccccc2)C(=O)N1)C(=O)N[C@H](C(=O)N[C@@H](Cc1c[nH]c2ccccc12)C(=O)O)[C@@H](C)CC [Endothelin],APP immunostaining signal,[1]; Corpus Callosum,n.s.
same,COX-2 immunostaining signal,[1]; Corpus Callosum,n.s.
same,GFAP immunostaining signal,[1]; Corpus Callosum,+
same,NKκB(p65) immunostaining signal,[1]; Corpus Callosum,n.s.
same,OX-6 immunostaining signal,[1]; Corpus Callosum,n.s.
same,TNFα immunostaining signal,[1]; Corpus Callosum,n.s.
same,Tau-2 immunostaining signal,[1]; Corpus Callosum,n.s.
same,APP immunostaining signal,[1]; Cortex,n.s.
same,COX-2 immunostaining signal,[1]; Cortex,n.s.
same,GFAP immunostaining signal,[1]; Cortex,+
same,NKκB(p65) immunostaining signal,[1]; Cortex,n.s.
same,OX-6 immunostaining signal,[1]; Cortex,n.s.
same,TNFα immunostaining signal,[1]; Cortex,n.s.
same,Tau-2 immunostaining signal,[1]; Cortex,n.s.
same,APP immunostaining signal,[1]; Hippocampus,n.s.
same,COX-2 immunostaining signal,[1]; Hippocampus,n.s.
same,GFAP immunostaining signal,[1]; Hippocampus,+
same,NKκB(p65) immunostaining signal,[1]; Hippocampus,n.s.
same,OX-6 immunostaining signal,[1]; Hippocampus,n.s.
same,Tau-2 immunostaining signal,[1]; Hippocampus,n.s.
same,APP immunostaining signal,[1]; Hypothalamus,n.s.
same,NKκB(p65) immunostaining signal,[1]; Hypothalamus,n.s.
same,TNFα immunostaining signal,[1]; Hypothalamus,n.s.
same,APP immunostaining signal,[1]; Striatum (right),+
same,COX-2 immunostaining signal,[1]; Striatum (right),+
same,Cas-3 immunostaining signal,[1]; Striatum (right),+
same,GFAP immunostaining signal,[1]; Striatum (right),++
same,NKκB(p65) immunostaining signal,[1]; Striatum (right),+
same,OX-6 immunostaining signal,[1]; Striatum (right),++
same,TNFα immunostaining signal,[1]; Striatum (right),+
same,OX-6 immunostaining signal,[1]; Thalamus (right),+
same,TNFα immunostaining signal,[1]; Thalamus (right),+
same,Tau-2 immunostaining,[1]; region of ischemic damage (right striatum),Increases
same,IL-1β immunostaining,"[1]; region of the infarct, punctate appearance",Increases
same,average numbers of OX-6-stained microglia,[2]; CA1 of the hippocampus,4.8±0.9
same,Average intensity measurements for GFAP,[2]; Hippocampus,152.9±11.0
same,APP Accumulation,[2]; Left Cortex,7.4 ± 1.4
same,GFAP Intensity,[2]; Left Hippocampus,152.1 ± 4.1
same,OX6 Intensity,[2]; Left Hippocampus,104.2 ± 3.5
same,APP Accumulation,[2]; Right Cortex,13.8 ± 1.9
same,GFAP Intensity,[2]; Right Hippocampus,166.0 ± 3.8
same,OX6 Intensity,[2]; Right Hippocampus,116.2 ± 2.9
same,"Staircase test performance, contralateral paw",[3]; day 8 (first day of re-testing),66±15 % of pretreatment
same,"Staircase test performance, ipsilateral paw",[3]; during the post-treatment phase,143±18 % of pretreatment
same,Congo Red staining,[4],stained positively for Congo Red
